From patent EP4782453A1 (Beyang Therapeutics Co., Ltd., priority 2023, dated 2025)
Like-named read-outs stand apart in the source and are kept apart here.

Columns and labels:
KG-1a (wild-type MLL) = assay: Inhibition of proliferation of human tumor cells (Alamar Blue, 7 days), KG-1a control cell line; assay type: cell-based; details: 168 h, KG-1a cells (wild-type MLL, control cell line), method calls the value GI50
Description: Experimental Example 2: Evaluation of Inhibitory Activity of Compounds Against Proliferation of Human Tumor Cells
• Human acute lymphoblastic leukemia cells MV-4-11, purchased from American Type Culture Collection, Catalog Number: CRL-9591; • Human acute myeloid leukemia cells MOLM-13, purchased from COBIOER BIOSCIENCES CO., LTD, Catalog Number: CBP60678; • Human acute myeloid leukemia cells KG-1a, purchased from American Type Culture Collection, Catalog Number: CCL-246.1; • Inverted Microscope, purchased from Olympus Tokyo; • Countess™ Automated Cell Counter, purchased from Invitrogen, Model: C10281; and • Multilabel Reader, purchased from Bio-Tek, Model: Synergy HT.
MV-4-11 cells were cultured in an IMDM medium containing 10% fetal bovine serum, KG-a cells were cultured in an IMDM medium containing 20% fetal bovine serum, or MOLM-13 cells were cultured in an RPMI-1640 medium containing 20% fetal bovine serum, each supplemented with 100 U·mL^-1 penicillin and 100 µg·mL^-1 streptomycin. These cells were cultured at 37°C with 5% CO2. The suspensions of individual cell lines were prepared in their respective media and seeded into 96-well plates at a density of 4,000 cells/well for MV-4-11 and MOLM-13 cells, or 3,000 cells/well for KG-1a cells. On the day of the experiment, a compound stock solution was diluted in a 3-fold or 4-fold gradient using DMSO. Each gradient-diluted stock solution was then further diluted 250-fold with a complete medium to prepare a series of working solutions at different concentrations. Subsequently, 100 µL of working solution (containing a 2-fold concentration series of the test compound) was added to each well, with duplicate wells set up for each concentration.
Seven days after compound addition (on Day 7), an Alamar Blue assay reagent (MCE, HY-111391 / CS-0040317) was added to measure the fluorescence intensity in each well. Wells containing the cells in the growth medium supplemented with 0.1% DMSO (Day 7) served as high-read control wells. The readouts from the wells containing the cells in the growth medium supplemented with 0.1% DMSO on the day of compound addition (Day 0) served as low-reading control well. GraphPad Prism software was used to calculate the concentration required to inhibit 50% of cell proliferation (GI50), which serves as a cell proliferation inhibition activity index.

[1] = system: MOLM-13 (carrying MLL-AF9); assay: Inhibition of proliferation of human tumor cells (Alamar Blue, 7 days), MOLM-13; assay type: cell-based; details: MOLM-13 cells (carrying MLL-AF9), method calls the value GI50
How it was run: (§1)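 GI50 from Alamar Blue fluorescence after 7-day compound exposure, duplicate wells, using Day-0 and Day-7 0.1% DMSO wells as low and high controls. MV-4-11 in IMDM/10% FBS and MOLM-13 in RPMI-1640/20% FBS at 4,000 cells/well; KG-1a in IMDM/20% FBS at 3,000 cells/well.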

Menin-MLL = target: T1, Menin-MLL (Homo sapiens, UniProt O00255); assay: Inhibitory activity against Menin-MLL binding (fluorescence polarization); details: 150 nM His-Menin, 15 nM FITC-MLL, 25°C for 60 min
T1 construct: His-Menin (M1-L615 end); purchased BIORTUS BP9210
T1 sequence (O00255 1-615 isoform O00255-1): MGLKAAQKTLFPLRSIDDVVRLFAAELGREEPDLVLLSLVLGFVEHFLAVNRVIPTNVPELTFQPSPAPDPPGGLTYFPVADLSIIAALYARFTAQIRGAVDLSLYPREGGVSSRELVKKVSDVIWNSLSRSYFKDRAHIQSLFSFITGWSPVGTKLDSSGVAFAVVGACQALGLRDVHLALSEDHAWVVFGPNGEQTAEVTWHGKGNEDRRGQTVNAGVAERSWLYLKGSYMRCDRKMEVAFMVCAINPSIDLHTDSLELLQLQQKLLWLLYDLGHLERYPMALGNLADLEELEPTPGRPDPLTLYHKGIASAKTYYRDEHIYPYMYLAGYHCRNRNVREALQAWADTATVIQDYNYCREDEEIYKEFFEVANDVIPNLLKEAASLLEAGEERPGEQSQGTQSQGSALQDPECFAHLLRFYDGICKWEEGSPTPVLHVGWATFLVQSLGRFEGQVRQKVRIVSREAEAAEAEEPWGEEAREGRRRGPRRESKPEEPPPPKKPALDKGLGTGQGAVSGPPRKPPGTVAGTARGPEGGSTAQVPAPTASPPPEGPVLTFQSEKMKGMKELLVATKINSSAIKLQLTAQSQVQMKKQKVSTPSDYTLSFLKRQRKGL
How it was run: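 Fluorescence polarization competition: compound and 150 nM His-tagged menin (residues M1-L615) sit 15 min at 25 °C in pH 7.5 HEPES buffer with NaCl, DTT and BSA; 15 nM FITC-labelled MLL peptide then binds for 60 min. IC50 fitted sigmoidally from mP values, duplicate wells.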

[2] = system: MV-4-11 (carrying MLL-AF4); assay: Inhibition of proliferation of human tumor cells (Alamar Blue, 7 days), MV-4-11; assay type: cell-based; details: MV-4-11 cells (carrying MLL-AF4), method calls the value GI50
How it was run: as §1

[3] = fluorescence polarization, read-out: Menin-MLL IC50
[4] = Menin-MLL IC50, fluorescence polarization

Structure (SMILES)	IC50 (KG-1a (wild-type MLL)) [µM]	IC50 ([1]; Homo sapiens, 168 h) [nM]	IC50 (Menin-MLL; [3]) [nM]	IC50 ([1]; Homo sapiens, MOLM-13, 168 h) [nM]	IC50 (Menin-MLL; [4]) [nM]	IC50 ([2]; Homo sapiens, MV4-11, 168 h) [nM]	IC50 [1] [nM]	IC50 [2] [nM]
Cc1nc(F)c2c(-c3ccc(F)cc3C(=O)N3CCOC[C@H]3C)cc(C3CN([C@H](CCCN4CCn5nccc5C4)C(C)C)C3)cn12 [Example 351, (3R)-4-[5-fluoro-2-(1-fluoro-3-methyl-6-{1-[(3R)-2-methyl-6-{4H,5H,6H,7H-pyrazolo[1,5-a]pyrazin-5-yl}hexan-3-yl]azacyclobutan-3-yl}imidazo[1,5-a]pyridin-8-yl)benzoyl]-3-methylmorpholine]	> 20	44	12.5					
CC(C)[C@@H](CCCN1CCN(C)CC1)N1CC(c2cc(-c3ccc(F)cc3C(=O)N3CCOC[C@H]3C)c3cnn(C)c3c2)C1 [Example 358]	> 20			91	13.5			
CCN(C(=O)c1cc(F)ccc1-c1cc(N2CCC(NCc3ccc(-c4cc(OC)c(OC)nn4)cc3)CC2)cn2cncc12)C(C)C [Example 19, 2-{6-[4-({[4-(5,6-dimethoxypyridazin-3-yl)phenyl]methyl}amino)piperidin-1-yl]imidazo[1,5-a]pyridin-8-yl}-N-ethyl-5-fluoro-N-isopropylbenzamide]	20		43.5			49		
CCN(C(=O)c1cc(F)ccc1-c1cc([C@@H]2CCN(C[C@H]3CC[C@H](NS(=O)(=O)CC)CC3)C2)cn2cncc12)C(C)C [Example 22-2]	20				14	22		
CCN(C(=O)c1cc(F)ccc1-c1cc([C@@H]2CCN(C[C@H]3CC[C@H](NS(=O)(=O)CC)CC3)C2)cc2cncn12)C(C)C [Example 25-1, N-ethyl-5-fluoro-N-isopropyl-2-{7-[(3S)-1-{[(1r,4r)-4-ethanesulfonamidocyclohexyl]methyl}pyrrolidin-3-yl]imidazo[1,5-a]pyridin-5-yl}benzamide]	12.6				5.7	4.7		
CCN(C(=O)c1cc(F)ccc1-c1cc(C2(F)CCN(C[C@H]3CC[C@H](NS(=O)(=O)CC)CC3)C2)cn2c(C)ncc12)C(C)C (stereo partly drawn) [Example 73, N-ethyl-5-fluoro-2-[6-(3-fluoro-1-{[(1r,4r)-4-ethanesulfonamidocyclohexyl]methyl}pyrrolidin-3-yl)-3-methylimidazo[1,5-a]pyridin-8-yl]-N-(isopropyl) benzamide]	20				28	61		
CCN(C(=O)c1cc(F)ccc1-c1cc(C2CN([C@H](CN3CCN(C)CC3)C(C)C)C2)cn2c(C)ncc12)C(C)C [Example 403-1, N-ethyl-5-fluoro-2-(3-methyl-6-{1-[(2S)-3-methyl-1-(4-methylpiperazin-1-yl)butan-2-yl]azacyclobutan-3-yl}imidazo[1,5-a]pyridin-8-yl)-N-(isopropyl)benzamide]	15	7.7	3.9					
CCN(C(=O)c1cc(F)ccc1-c1cc(C2CN([C@H](CCCN3CCC(OC)CC3)C(C)C)C2)cn2c(C)ncc12)C(C)C [Example 389, N-ethyl-5-fluoro-2-(6-{1-[(3R)-6-(4-methoxypiperidin-1-yl)-2-methylhexan-3-yl]azacyclobutan-3-yl}-3-methylimidazo[1,5-a]pyridin-8-yl)-N-(isopropyl)benzamide]	12	5.3	1.9					
CCN(C(=O)c1cc(F)ccc1-c1cc(C2CN([C@H](CN3CCN(C)CC3)C(C)C)C2)cc2c1cnn2C)C(C)C [Example 402-2, N-ethyl-5-fluoro-2-(1-methyl-6-{1-[(2S)-3-methyl-1-(4-methylpiperazin-1-yl)butan-2-yl]azacyclobutan-3-yl}-1H-indazol-4-yl)-N-(isopropyl)benzamide]	11	65	10					
CO[C@H]1CCN([C@H]2C[C@H](C(C(C)C)N3CC(c4cc(-c5ccc(F)cc5C(=O)N5CCOC[C@H]5C)c5cnn(C)c5c4)C3)C2)C1 (stereo partly drawn) [Example 196-1, 4-{4-fluoro-2-[(3R)-3-methylmorpholin-4-carbonyl]phenyl}-1-methyl-6-(1-{2-methyl-1-[(1r,3r)-3-[(3S)-3-methoxypyrrolidin-1-yl]cyclobutyl]propyl}azacyclobutan-3-yl)-1H-indazole]				120	50	36		
COCCC(=O)N1CCC(CN2CC(c3cc(-c4ccc(F)cc4C(=O)N4[C@H](C)COC[C@H]4C)c4c(F)nc(C)n4c3)C2)CC1 [Example 223]		19	15			8.1		
CCN(C(=O)c1cc(F)ccc1-c1cc([C@H]2CCN(C[C@]3(O)CC[C@H](NS(=O)(=O)CC)CC3)C2)cc2c1cnn2C)C(C)C [Compound 55-1-1, N-ethyl-5-fluoro-2-[1-methyl-6-[(3R)-1-{[(1r,4s)-4-ethanesulfonamido-1-hydroxylcyclohexyl]methyl}pyrrolidin-3-yl]-1H-indazol-4-yl]-N-(isopropyl)benzamide]			14				44	18.5
Cc1nc(F)c2c(-c3ccc(F)cc3C(=O)N3CCOC[C@H]3C)cc(C3CN(CC4CCN(C(=O)C5CC5)CC4)C3)cn12 [Example 269]		83	33.5			37		
CNC(=O)N1CCC(CN2CC(c3cc(-c4ccc(F)cc4C(=O)N4CCOC[C@H]4C)c4c(F)nc(C)n4c3)C2)CC1 [Example 250]		45	17			26		
CCS(=O)(=O)N[C@H]1CC[C@H](CN2CC(c3cc(-c4ccc(F)cc4C(=O)N(CC(F)F)C(C)C)c4c(F)nc(C)n4c3)C2)CC1 [Example 132, N-(2,2-difluoroethyl)-5-fluoro-2-[1-fluoro-3-methyl-6-(1-{[(1r,4r)-4-ethanesulfonamidocyclohexyl]methyl}-azacyclobutan-3-yl)imidazo[1,5-a]pyridin-8-yl]-N-(isopropyl)benzamide]				16	6	17		
CCN(C(=O)c1cc(F)ccc1-c1cc(C2CN([C@H](CCCO)C(C)C)C2)cn2c(C)ncc12)C(C)C [Example 396, N-ethyl-5-fluoro-2-(6-{1-[(3R)-6-hydroxyl-2-methylhexan-3-yl]azacyclobutan-3-yl}-3-methylimidazo[1,5-a]pyridin-8-yl)-N-(isopropyl)benzamide]	> 20	22	3					
